The source of these data is ChEMBL document CHEMBL1149340, “Optimization and SAR for dual ErbB-1/ErbB-2 tyrosine kinase inhibition in the 6-furanylquinazoline series” (Bioorg Med Chem Lett, 2006).

One experiment concerns BT-474. Description: Inhibition of BT474 cell growth after 72 hrs. It is filed as functional, cell-based. Particulars: Homo sapiens, BT-474, 72 h.
Experiment [1] has as its target Epidermal growth factor receptor (Homo sapiens, UniProt P00533).
For experiment [2], the target named is Receptor tyrosine-protein kinase erbB-2 (Homo sapiens, UniProt P04626).
Receptor tyrosine-protein kinase erbB-2, sequence (P04626 whole entry): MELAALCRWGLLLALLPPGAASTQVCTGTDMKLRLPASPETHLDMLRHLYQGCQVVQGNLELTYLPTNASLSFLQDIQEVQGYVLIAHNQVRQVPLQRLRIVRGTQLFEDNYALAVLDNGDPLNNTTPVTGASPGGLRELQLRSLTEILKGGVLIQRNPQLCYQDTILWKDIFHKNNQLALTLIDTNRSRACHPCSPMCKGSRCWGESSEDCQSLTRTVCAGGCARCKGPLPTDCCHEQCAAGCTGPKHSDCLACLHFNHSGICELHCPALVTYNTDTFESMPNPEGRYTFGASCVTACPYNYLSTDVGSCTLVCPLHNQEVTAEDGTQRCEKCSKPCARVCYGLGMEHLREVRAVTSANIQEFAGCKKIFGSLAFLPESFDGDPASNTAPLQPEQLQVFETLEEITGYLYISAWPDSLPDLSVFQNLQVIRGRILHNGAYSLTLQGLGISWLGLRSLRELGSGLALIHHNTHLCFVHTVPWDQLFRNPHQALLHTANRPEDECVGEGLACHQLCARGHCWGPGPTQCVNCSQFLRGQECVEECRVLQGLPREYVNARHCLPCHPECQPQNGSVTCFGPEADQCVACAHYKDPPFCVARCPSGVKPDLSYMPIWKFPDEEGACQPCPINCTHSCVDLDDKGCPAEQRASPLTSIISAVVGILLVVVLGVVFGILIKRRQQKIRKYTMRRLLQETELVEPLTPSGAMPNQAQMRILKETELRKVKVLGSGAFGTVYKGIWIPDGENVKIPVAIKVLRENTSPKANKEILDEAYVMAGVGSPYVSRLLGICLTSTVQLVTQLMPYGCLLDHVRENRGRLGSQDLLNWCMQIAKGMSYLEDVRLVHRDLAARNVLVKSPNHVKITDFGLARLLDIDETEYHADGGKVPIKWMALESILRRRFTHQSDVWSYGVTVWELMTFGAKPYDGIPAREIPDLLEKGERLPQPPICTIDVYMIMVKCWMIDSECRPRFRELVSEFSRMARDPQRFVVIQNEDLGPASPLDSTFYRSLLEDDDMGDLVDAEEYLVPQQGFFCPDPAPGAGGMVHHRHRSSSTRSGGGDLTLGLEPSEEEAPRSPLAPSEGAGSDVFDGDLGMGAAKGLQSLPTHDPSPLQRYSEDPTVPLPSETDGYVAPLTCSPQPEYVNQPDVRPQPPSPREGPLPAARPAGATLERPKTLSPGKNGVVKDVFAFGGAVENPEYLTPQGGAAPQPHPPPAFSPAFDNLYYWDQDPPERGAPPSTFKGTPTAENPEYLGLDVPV
The subject of the next experiment is NCI-N87. In words: Inhibition of N87 cell growth after 72 hrs. Format: functional, cell-based. Particulars: Homo sapiens, NCI-N87, 72 h.
The test system of another experiment is HN5. Description: cells. Particulars: Homo sapiens, HN5, 72 h.
Another experiment has as its system HFF. Description: Inhibition of HFF cell growth. Particulars: Homo sapiens.

Each structure is given as a SMILES string. pIC50: −log10 of the molar value.

Epidermal growth factor receptor, sequence (P00533 whole entry): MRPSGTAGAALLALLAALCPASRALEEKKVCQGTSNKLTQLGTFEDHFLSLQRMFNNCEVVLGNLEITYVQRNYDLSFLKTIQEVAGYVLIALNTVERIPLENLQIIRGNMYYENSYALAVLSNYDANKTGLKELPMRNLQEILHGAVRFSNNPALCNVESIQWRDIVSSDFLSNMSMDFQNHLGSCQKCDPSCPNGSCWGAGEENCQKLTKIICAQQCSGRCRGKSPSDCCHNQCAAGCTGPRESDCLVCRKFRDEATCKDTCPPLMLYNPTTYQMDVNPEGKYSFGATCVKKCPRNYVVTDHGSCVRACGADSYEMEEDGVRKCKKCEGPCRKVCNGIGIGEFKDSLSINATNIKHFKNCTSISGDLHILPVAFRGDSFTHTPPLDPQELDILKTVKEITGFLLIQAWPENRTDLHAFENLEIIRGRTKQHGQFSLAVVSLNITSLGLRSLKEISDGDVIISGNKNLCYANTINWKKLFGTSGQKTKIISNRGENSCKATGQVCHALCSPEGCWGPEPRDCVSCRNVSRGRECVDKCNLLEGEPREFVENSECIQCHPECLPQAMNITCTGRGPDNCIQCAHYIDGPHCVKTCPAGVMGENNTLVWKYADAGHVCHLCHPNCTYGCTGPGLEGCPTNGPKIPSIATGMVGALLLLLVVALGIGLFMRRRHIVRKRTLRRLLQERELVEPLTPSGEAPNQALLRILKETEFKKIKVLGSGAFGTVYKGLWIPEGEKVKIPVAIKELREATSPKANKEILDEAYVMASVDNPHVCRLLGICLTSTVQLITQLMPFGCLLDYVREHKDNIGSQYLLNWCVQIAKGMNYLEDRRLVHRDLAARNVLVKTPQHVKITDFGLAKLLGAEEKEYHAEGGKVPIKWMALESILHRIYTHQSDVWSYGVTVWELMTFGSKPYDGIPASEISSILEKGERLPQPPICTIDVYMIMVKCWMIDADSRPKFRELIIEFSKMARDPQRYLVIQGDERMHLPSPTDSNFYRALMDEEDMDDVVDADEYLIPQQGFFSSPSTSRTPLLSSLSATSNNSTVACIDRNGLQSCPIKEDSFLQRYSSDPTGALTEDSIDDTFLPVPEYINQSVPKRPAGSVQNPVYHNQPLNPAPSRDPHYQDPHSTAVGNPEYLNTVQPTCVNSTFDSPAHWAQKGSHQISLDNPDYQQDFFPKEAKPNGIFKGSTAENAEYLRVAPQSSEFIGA
Description for HN5: Inhibition of HN5 cell growth after 72 hrs

In general, pIC50 refers to the IC50 on a negative log10 scale, so that one unit is a factor of ten. For `O=S(=O)(CCNCc1ccc(-c2ccc3ncnc(Nc4ccc(OCc5cccc(F)c5)c(Cl)c4)c3c2)o1)c1ccccc1`, the pIC50 was 5.98 with BT-474; 7.72 in experiment [1]; 7.52 in experiment [2]; 6.06 in the experiment with NCI-N87; 5.97 with HN5.

Consider `O=S(=O)(CCCCNCc1ccc(-c2ccc3ncnc(Nc4ccc(OCc5ccccc5)c(Cl)c4)c3c2)o1)c1ccccc1`, for which the pIC50 in experiment [1] is 7.30; in experiment [2], 7.42.

With `CCCN(CCS(C)(=O)=O)Cc1ccc(-c2ccc3ncnc(Nc4ccc(OCc5cccc(F)c5)c(Cl)c4)c3c2)o1`, the pIC50 in the experiment on BT-474 was 6.60; in experiment [1], 7.07; in experiment [2], 7.70.

Consider `[O-][S+]1CCN(Cc2ccc(-c3ccc4ncnc(Nc5ccc(OCc6cccc(F)c6)c(Cl)c5)c4c3)o2)CC1`, for which the pIC50 was 7.00 in the experiment with BT-474; 7.55 in experiment [1]; 7.74 in experiment [2]; 7.10 with NCI-N87; 7.22 in the experiment on HN5; 5.09 in the experiment with HFF.

For the compound `[O-][S+]1CCN(Cc2ccc(-c3ccc4ncnc(Nc5ccc(OCc6ccccc6)c(Cl)c5)c4c3)o2)CC1`, the pIC50 in the experiment with BT-474 was 6.38; in experiment [1], 7.92; in experiment [2], 7.64; in the experiment with NCI-N87, 6.34; in the experiment with HN5, 6.49.

Turning to `CS(=O)(=O)CCNCc1ccc(-c2ccc3ncnc(Nc4ccc(OCc5ccccc5)cc4)c3c2)o1`, the negative logarithm of the IC50 (pIC50) with BT-474 is 6.55; in experiment [1] it was 7.57; in experiment [2], 7.59; in the experiment on NCI-N87, 6.06; with HN5 it was 6.19.

For `CS(=O)(=O)CCNCc1ccc(-c2ccc3ncnc(Nc4ccc(OCc5cccc(F)c5)cc4)c3c2)o1`, the pIC50 in the experiment on BT-474 is 6.11; in experiment [1] it was 7.62; in experiment [2], 7.51; with NCI-N87 it was 6.07; in the experiment with HN5 it was 6.08.

Take `CS(=O)(=O)CCNCc1ccc(-c2ccc3ncnc(Nc4ccc(OCc5cccc(C(F)(F)F)c5)cc4)c3c2)o1`: the pIC50 with BT-474 is 5.38; in experiment [1], 7.04; in experiment [2] it was 6.44; with NCI-N87 it was 5.28; in the experiment with HN5, 5.16.

In the case of `CC(C)S(=O)(=O)CCNCc1ccc(-c2ccc3ncnc(Nc4ccc(OCc5cccc(F)c5)c(Cl)c4)c3c2)o1`, the pIC50 in the experiment with BT-474 was 6.70; in experiment [2], 7.62; in the experiment with NCI-N87, 6.89; with HFF it was < 4.52.

On to `CS(=O)(=O)CCNCc1ccc(-c2ccc3ncnc(Nc4ccc(OCc5ccccc5)c(Br)c4)c3c2)o1`, for which the pIC50 was 6.57 in the experiment with BT-474 and 6.43 with NCI-N87.

As for `COc1cc(Nc2ncnc3ccc(-c4ccc(CNCCS(C)(=O)=O)o4)cc23)ccc1OCc1cccc(F)c1`, the pIC50 in the experiment with BT-474 was 5.68; with NCI-N87 it was 5.72.

On to `CS(=O)(=O)CCOCc1ccc(-c2ccc3ncnc(Nc4ccc(OCc5cccc(F)c5)c(Cl)c4)c3c2)o1`, for which the pIC50 was 6.77 in the experiment on BT-474, 7.59 in experiment [1], 7.77 in experiment [2] and < 4.52 with HFF.

With `[O-][S+]1CCN(Cc2ccc(-c3ccc4ncnc(Nc5ccc(OCc6ccccc6)c(F)c5)c4c3)o2)CC1`, the pIC50 in the experiment on BT-474 is 5.92; in experiment [1] it was 7.80; in experiment [2], 7.46; in the experiment on NCI-N87, 5.95; in the experiment on HN5 it was 6.00.

Turning to `[O-][S+]1CCN(Cc2ccc(-c3ccc4ncnc(Nc5ccc(OCc6cccc(F)c6)c(C(F)(F)F)c5)c4c3)o2)CC1`, the pIC50 was 5.52 in the experiment with BT-474; 7.05 in experiment [1]; 6.85 in experiment [2]; 5.68 in the experiment on NCI-N87; 5.95 in the experiment with HN5.

With `CS(=O)(=O)CCNCc1ccc(-c2ccc3ncnc(Nc4ccc(OCc5ccccc5)c(Cl)c4)c3c2)o1`, the pIC50 with BT-474 was 6.60; in experiment [1], 7.74; in experiment [2], 7.66; in the experiment with NCI-N87 it was 6.55; in the experiment on HN5, 6.60.

Consider `CCCS(=O)(=O)CCNCc1ccc(-c2ccc3ncnc(Nc4ccc(OCc5cccc(F)c5)c(Cl)c4)c3c2)o1`, for which the negative-log IC50 (pIC50) was 5.50 in the experiment with BT-474; 7.68 in experiment [1]; 7.59 in experiment [2]; 5.06 in the experiment on NCI-N87; 5.80 with HN5.

With `CS(=O)(=O)CCNCc1ccc(-c2ccc3ncnc(Nc4ccc(OCc5cccc(Br)c5)cc4)c3c2)o1`, the pIC50 with BT-474 was 5.67; in experiment [1], 7.37; in experiment [2], 7.00; in the experiment on NCI-N87 it was 5.46; with HN5 it was 5.59.

`CS(=O)(=O)CCNCc1ccc(-c2ccc3ncnc(Nc4ccc(OCc5ccccc5)c(C(F)(F)F)c4)c3c2)o1`: the pIC50 was 4.99 in the experiment on BT-474; 6.80 in experiment [1]; 6.70 in experiment [2]; 5.19 in the experiment on NCI-N87; 5.23 in the experiment with HN5.

Take `CS(=O)(=O)CCN(Cc1ccccc1)Cc1ccc(-c2ccc3ncnc(Nc4ccc(OCc5cccc(F)c5)c(Cl)c4)c3c2)o1`: the pIC50 in the experiment on BT-474 was 6.21; in experiment [2], 6.85.

As for `CS(=O)(=O)CCNCc1ccc(-c2ccc3ncnc(Nc4ccc(OCc5cccc(F)c5)c(C(F)(F)F)c4)c3c2)o1` [GW576484X], the pIC50 is 5.35 in the experiment with BT-474; 7.10 in experiment [1]; 6.66 in experiment [2]; 5.54 with NCI-N87; 5.71 in the experiment on HN5.

Regarding `O=S(=O)(CCOCc1ccc(-c2ccc3ncnc(Nc4ccc(OCc5cccc(F)c5)c(Cl)c4)c3c2)o1)c1ccccc1` [GW615311X], the pIC50 in experiment [1] was 7.60; in experiment [2], 7.55.

Turning to `CS(=O)(=O)CCN(CC#N)Cc1ccc(-c2ccc3ncnc(Nc4ccc(OCc5cccc(F)c5)c(Cl)c4)c3c2)o1` [GW616030X], the pIC50 in the experiment with BT-474 was 7.17; in experiment [1], 7.57; in experiment [2] it was 7.66; in the experiment on HFF, < 4.52.

As to `CS(=O)(=O)CCNCc1ccc(-c2ccc3ncnc(Nc4ccc(OCc5cccc(F)c5)c(Cl)c4)c3c2)o1` [LAPATINIB], the values for the pIC50 in the experiment with BT-474, in the experiment on NCI-N87 and in the experiment on HFF were 7.10, 7.10 and 5.00, respectively.
